Results taken from patent publication US8048893B2, “Pyrazolyl derivatives, preparation process and intermediates of this process as medicinal products and pharmaceutical compositions containing them” (Aventis Pharma SA, priority 2003, dated 2011).

Structure (SMILES)	melting point
Cl.Cl.Oc1nn(CCN2CC3CCC2C3)cc1-c1ccccc1 (stereo not shown)	173 °C (dec.)
CC(Cn1cc(-c2ccccc2)c(O)n1)N(C)C.Cl.Cl (stereo not shown)	189 °C
Cc1c(-c2ccccc2)c(O)nn1CCN1CCCCC1.Cl.Cl	222 °C
Cl.Cl.Oc1nn(CCN2CCCCCC2)cc1-c1ccccc1	228 °C (dec.)
CS(=O)(=O)Nc1nn(CCN2CCCCC2)cc1-c1ccccc1 [Example 25, N-[4-Phenyl-1-(2-piperidin-1-ylethyl)-1H-pyrazol-3-yl]-methanesulfonamide]	121 °C
CN1CCCC(Cn2cc(-c3ccccc3)c(O)n2)C1 (stereo not shown) [Example 27, 1-(1-Methylpiperidin-3-ylmethyl)-4-phenyl-1H-pyrazol-3-ol]	132 °C
NC(=O)c1ccccc1-c1cnn(CCN2CCCCC2)c1 [Example 72, 2-[1-(2-Piperidin-1-ylethyl)-1H-pyrazol-4-yl]benzamide]	168 °C
